Experimental data as given in patent EP4548976A1, “ANTIVIRAL COMPOUNDS AND COMPOSITIONS THEREFROM” (Consejo Superior De Investigaciones Científicas, priority 2023, dated 2025).

Legend:
[1] = tested on: SARS-CoV-2 stock strain NL/2020; assay: Antiviral activity in A549-ACE2 cells using viral antigen quantitation (SARS-CoV-2 N protein immunofluorescence); format: cell-based; conditions: Severe acute respiratory syndrome coronavirus 2, MOI 0.005, 48 h; for EC50: concentration reducing SARS-CoV-2 infection efficiency by 50% vs vehicle; for EC90: concentration reducing SARS-CoV-2 infection efficiency by 90% vs vehicle
in vitro = conditions: human

Row | Compound | EC50 [1] | EC90 [1] | CC50 (in vitro)
1 | COC(=O)c1cc(-c2ccc(N3CCOCC3)cc2)ccc1NC(C#N)[C@H](Cc1c[nH]c2cccc(-c3ccc(-c4cn(CCCOCCOCCOCCNC(=O)CCC[C@H]5SC[C@H]6NC(=O)N[C@H]65)nn4)cc3)c12)NC(=O)OC(C)(C)C (mixture of isomers) [Example 20, Methyl 4-(((1RS,2S)-2-((tert-butoxycarbonyl)amino)-1-cyano-3-(4-(4-(1-(14-oxo-17-((3aR,4R,6aS)-2-oxohexahydro-1H-thieno[3,4-d]imidazol-4-yl)-4,7,10-trioxa-13-azaheptadecyl)-1H-1,2,3-triazol-4-yl)phenyl)-1H-indol-3-yl)propyl)amino)-4'-morpholino-[1,1'-biphenyl]-3-carboxylate] | 2 µM | 50 µM | > 50 µM
2 | COC(=O)c1cc(-c2ccnc(N3CCOCC3)c2)ccc1NC(C#N)[C@H](Cc1c[nH]c2ccccc12)NC(=O)OC(C)(C)C (mixture of isomers) [Example 7, Methyl 2-(((1RS,2S)-2-((tert-butoxycarbonyl)amino)-1-cyano-3-(1H-indol-3-yl)propyl)amino)-5-(2-morpholinopyridin-4-yl)benzoate] | 1.1 µM | 6 µM | > 50 µM
3 | COC(=O)c1cc(-c2ccc3c(c2)OCCO3)ccc1NC(C#N)[C@@H](Cc1c[nH]c2ccccc12)NC(=O)OC(C)(C)C (mixture of isomers) [Example 28, Methyl 2-(((1RS,2R)-2-((tert-butoxycarbonyl)amino)-1-cyano-3-(1H-indol-3-yl)propyl)amino)-5-(2,3-dihydrobenzo[b][1,4]dioxin-6-yl)benzoate] | 7 µM | 30 µM | > 50 µM
4 | COC(=O)c1cc(-c2ccc(C(=O)N3CCOCC3)cc2)ccc1NC(C#N)[C@H](Cc1c[nH]c2ccccc12)NC(=O)OC(C)(C)C (mixture of isomers) [Example 8, Methyl 4-(((1RS,2S)-2-((tert-butoxycarbonyl)amino)-1-cyano-3-(1H-indol-3-yl)propyl)amino)-4'-(morpholine-4-carbonyl)-[1,1'-biphenyl]-3-carboxylate] | 0.9 µM | 2 µM | > 50 µM
5 | COC(=O)c1cc(-c2ccc(N3CCOCC3)cc2)ccc1NC(C#N)[C@H](Cc1c[nH]c2ccc(Br)cc12)NC(=O)OC(C)(C)C (mixture of isomers) [Example 1, Methyl 4-(((1RS,2S)-3-(5-bromo-1H-indol-3-yl)-2-((tert-butoxycarbonyl)amino)-1-cyanopropyl)amino)-4'-morpholino-[1,1'-biphenyl]-3-carboxylate] | 0.8 µM | 6 µM | > 50 µM
6 | COC(=O)c1cc(-c2ccc(CN3CCOCC3)cc2)ccc1NC(C#N)[C@H](Cc1c[nH]c2ccccc12)NC(=O)OC(C)(C)C (mixture of isomers) [Example 10, Methyl 4-(((1RS,2S)-2-((tert-butoxycarbonyl)amino)-1-cyano-3-(1H-indol-3-yl)propyl)amino)-4'-(morpholinomethyl)-[1,1'-biphenyl]-3-carboxylate] | 0.9 µM | 2 µM | > 50 µM
7 | COC(=O)c1cc(-c2c[nH]c3ncccc23)ccc1NC(C#N)[C@H](Cc1c[nH]c2ccccc12)NC(=O)OC(C)(C)C (mixture of isomers) [Example 18, Methyl 2-(((1RS,2S)-2-((tert-butoxycarbonyl)amino)-1-cyano-3-(1H-indol-3-yl)propyl)amino)-5-(1H-pyrrolo[2,3-b]pyridin-3-yl)benzoate] | 6 µM | 9 µM | 10 µM
8 | COC(=O)c1cc(-c2ccc3ocnc3c2)ccc1NC(C#N)[C@H](Cc1c[nH]c2ccccc12)NC(=O)OC(C)(C)C (mixture of isomers) [Example 24, Methyl 5-(benzo[d]oxazol-5-yl)-2-(((1RS,2S)-2-((tert-butoxycarbonyl)amino)-1-cyano-3-(1H-indol-3-yl)propyl)amino)benzoate] | 6 µM | 9 µM | > 50 µM
9 | COC(=O)c1cc(-c2ccnn2C2CCCCO2)ccc1NC(C#N)[C@H](Cc1c[nH]c2ccccc12)NC(=O)OC(C)(C)C (mixture of isomers) [Example 23, Methyl 2-(((1RS,2S)-2-((tert-butoxycarbonyl)amino)-1-cyano-3-(1H-indol-3-yl)propyl)amino)-5-(1-(tetrahydro-2H-pyran-2-yl)-1H-pyrazol-5-yl)benzoate] | 4 µM | 8 µM | 50 µM
10 | COC(=O)c1cc(-c2ccc(F)c(-c3nn[nH]n3)c2)ccc1NC(C#N)[C@H](Cc1c[nH]c2ccccc12)NC(=O)OC(C)(C)C (mixture of isomers) [Example 21, Methyl 4-(((1RS,2S)-2-((tert-butoxycarbonyl)amino)-1-cyano-3-(1H-indol-3-yl)propyl)amino)-4'-fluoro-3'-(2H-tetrazol-5-yl)-[1,1'-biphenyl]-3-carboxylate] | 6 µM | > 50 µM | > 50 µM
